According to US20250163104A1, “MACROCYCLIC IMMUNOMODULATORS” (priority 2021, published 2025):
Where a SMILES comes first, the peptide text is derived from it. Bridges are numbered along the chain shown (N, C = ends). [ ]: non-standard residue; d: D form. The star is where a group is joined. Ala(morpholin-4-yl) = N[C@@H](CN1CCOCC1)C(=O)O; Phe(4-COOH) = N[C@@H](Cc1ccc(C(=O)O)cc1)C(=O)O; Bip = N[C@@H](Cc1ccc(-c2ccccc2)cc1)C(=O)O; Phe(3-Me) = Cc1cccc(C[C@H](N)C(=O)O)c1; 4Pal = N[C@@H](Cc1ccncc1)C(=O)O; Cha = N[C@@H](CC1CCCCC1)C(=O)O; Carboxymethyl = O=C(O)C*; Orn = NCCC[C@H](N)C(=O)O; Pra = C#CC[C@H](N)C(=O)O; Dab = NCC[C@H](N)C(=O)O; Nva = CCC[C@H](N)C(=O)O; Dap = NC[C@H](N)C(=O)O; Propargyl = C#CC*

Target: T1, human PD-1 / PD-L1-Ig binding on Jurkat cell line over-expressing human PD-1 (Jurkat-PD-1) (Homo sapiens, UniProt Q15116)
T1 construct: expressed in transfected cells; host or cells: Jurkat
T1 sequence (Q15116 25-288): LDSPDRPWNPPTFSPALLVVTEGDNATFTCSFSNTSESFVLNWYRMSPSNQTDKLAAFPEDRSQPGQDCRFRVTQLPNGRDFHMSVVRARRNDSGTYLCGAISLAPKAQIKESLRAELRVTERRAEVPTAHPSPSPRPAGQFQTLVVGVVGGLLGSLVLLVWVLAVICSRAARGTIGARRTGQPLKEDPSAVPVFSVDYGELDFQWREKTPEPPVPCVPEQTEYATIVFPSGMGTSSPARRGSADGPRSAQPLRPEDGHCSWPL
Test: Jurkat-PD-1 Cell Binding High-Content Screening Assay (CBA)
Assay type: cell-based
Details: Jurkat-PD-1 cells, PE-labeled PD-L1-Ig 20 nM final; read-out: Jurkat HPD1_PDL1 IC50
How it was run: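 Jurkat-hPD-1 cells in DMEM with 10% fetal calf serum receive test compound and are held at 37° C for 2 h. PE-labeled PD-L1-Ig is added at 20 nM final and left for 1 hour. Cells are then fixed and Hoechst-stained, and binding is measured by imaging.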

Structure (SMILES)	IC50
C#CCOc1ccc(C[C@@H]2NC(=O)[C@H](C(C)C)NC(=O)[C@H](CC3CCCCC3)NC(=O)[C@H](CCN)NC(=O)[C@@H](CC(C)C)NC(=O)[C@H](CCCN)NC(=O)[C@H](Cc3ccc(OCC(=O)O)cc3)NC(=O)[C@H](Cc3ccc(-c4ccccc4)cc3)NC(=O)[C@H](Cc3ccc(OCC(=O)O)cc3)NC(=O)[C@H](Cc3cccc(C)c3)NC(=O)[C@H](CC(=O)O)NC(=O)[C@H](Cc3ccc(OCC(=O)O)cc3)NC(=O)[C@H](CN)NC(=O)CSC[C@@H](C(=O)N[C@@H](CCN)C(N)=O)NC2=O)cc1 [Compound 1816] ({CH2CO}-[Dap]Y(Carboxymethyl)D[Phe(3-Me)]Y(Carboxymethyl)[Bip]Y(Carboxymethyl)[Orn][dL][Dab][Cha]VY(Propargyl)C[Dab]-NH2; thioether N-14)	11.9 nM
C#CCOc1ccc(C[C@@H]2NC(=O)CSC[C@@H](C(=O)N[C@@H](CCN)C(N)=O)NC(=O)[C@H](CCC(=O)O)NC(=O)[C@H](C(C)C)NC(=O)[C@H](CC3CCCCC3)NC(=O)[C@H](CCN)NC(=O)[C@@H](CC(C)C)NC(=O)[C@H](CCCN)NC(=O)[C@H](Cc3ccc(OCC(=O)O)cc3)NC(=O)[C@H](Cc3ccc(-c4ccccc4)cc3)NC(=O)[C@H](Cc3ccc(OCC(=O)O)cc3)NC(=O)[C@H](Cc3cccc(C)c3)NC(=O)[C@H](CC(=O)O)NC(=O)[C@H](Cc3ccc(OCC(=O)O)cc3)NC2=O)cc1 [Compound 1817] ({CH2CO}-Y(Propargyl)Y(Carboxymethyl)D[Phe(3-Me)]Y(Carboxymethyl)[Bip]Y(Carboxymethyl)[Orn][dL][Dab][Cha]VEC[Dab]-NH2; thioether N-14)	3.6 nM
C#CCOc1ccc(C[C@@H]2NC(=O)[C@H](Cc3cccc(C)c3)NC(=O)[C@H](CC(=O)O)NC(=O)[C@H](Cc3ccc(OCC(=O)O)cc3)NC(=O)[C@H](CCCNC(=N)N)NC(=O)CSC[C@@H](C(=O)N[C@@H](CCN)C(N)=O)NC(=O)[C@H](CCC(=O)O)NC(=O)[C@H](C(C)C)NC(=O)[C@H](CC3CCCCC3)NC(=O)[C@H](CCN)NC(=O)[C@@H](CC(C)C)NC(=O)[C@H](CCCN)NC(=O)[C@H](Cc3ccc(OCC(=O)O)cc3)NC(=O)[C@H](Cc3ccc(-c4ccccc4)cc3)NC2=O)cc1 [Compound 1818] ({CH2CO}-RY(Carboxymethyl)D[Phe(3-Me)]Y(Propargyl)[Bip]Y(Carboxymethyl)[Orn][dL][Dab][Cha]VEC[Dab]-NH2; thioether N-14)	2.3 nM
C#CCOc1ccc(C[C@@H]2NC(=O)[C@H](CN)NC(=O)CSC[C@@H](C(=O)N[C@@H](CCN)C(N)=O)NC(=O)[C@H](CCC(=O)O)NC(=O)[C@H](C(C)C)NC(=O)[C@H](CC3CCCCC3)NC(=O)[C@H](CCN)NC(=O)[C@@H](CC(C)C)NC(=O)[C@H](CCCN)NC(=O)[C@H](Cc3ccc(OCC(=O)O)cc3)NC(=O)[C@H](Cc3ccc(-c4ccccc4)cc3)NC(=O)[C@H](Cc3ccc(OCC(=O)O)cc3)NC(=O)[C@H](Cc3cccc(C)c3)NC(=O)[C@H](CC(=O)O)NC2=O)cc1 [Compound 1819] ({CH2CO}-[Dap]Y(Propargyl)D[Phe(3-Me)]Y(Carboxymethyl)[Bip]Y(Carboxymethyl)[Orn][dL][Dab][Cha]VEC[Dab]-NH2; thioether N-14)	3.7 nM
C#CCOc1ccc(C[C@@H]2NC(=O)[C@H](CCN)NC(=O)CSC[C@@H](C(=O)N[C@@H](CCN)C(N)=O)NC(=O)[C@H](CCC(=O)O)NC(=O)[C@H](C(C)C)NC(=O)[C@H](CC3CCCCC3)NC(=O)[C@H](CCN)NC(=O)[C@@H](CC(C)C)NC(=O)[C@H](CCCN)NC(=O)[C@H](Cc3ccc(OCC(=O)O)cc3)NC(=O)[C@H](Cc3ccc(-c4ccccc4)cc3)NC(=O)[C@H](Cc3ccc(OCC(=O)O)cc3)NC(=O)[C@H](Cc3cccc(C)c3)NC(=O)[C@H](CC(=O)O)NC2=O)cc1 [Compound 1820] ({CH2CO}-[Dab]Y(Propargyl)D[Phe(3-Me)]Y(Carboxymethyl)[Bip]Y(Carboxymethyl)[Orn][dL][Dab][Cha]VEC[Dab]-NH2; thioether N-14)	17.2 nM
C#CCOc1ccc(C[C@@H]2NC(=O)[C@H](C(C)C)NC(=O)[C@H](CC3CCCCC3)NC(=O)[C@H](CCN)NC(=O)[C@@H](CC(C)C)NC(=O)[C@H](CCCN)NC(=O)[C@H](Cc3ccc(OCC(=O)O)cc3)NC(=O)[C@H](Cc3ccc(-c4ccccc4)cc3)NC(=O)[C@H](Cc3ccc(OCC(=O)O)cc3)NC(=O)[C@H](Cc3cccc(C)c3)NC(=O)[C@H](CC(=O)O)NC(=O)[C@H](Cc3ccc(OCC(=O)O)cc3)NC(=O)[C@H](Cc3ccncc3)NC(=O)CSC[C@@H](C(=O)N[C@@H](CCN)C(N)=O)NC2=O)cc1 [Compound 1821] ({CH2CO}-[4Pal]Y(Carboxymethyl)D[Phe(3-Me)]Y(Carboxymethyl)[Bip]Y(Carboxymethyl)[Orn][dL][Dab][Cha]VY(Propargyl)C[Dab]-NH2; thioether N-14)	191 nM
C#CC[C@H](NC(=O)[C@H](CCN)NC(=O)[C@@H]1CSCC(=O)N[C@@H](CCC)C(=O)N[C@@H](Cc2ccc(OCC(=O)O)cc2)C(=O)N[C@@H](CC(=O)O)C(=O)N[C@@H](Cc2cccc(C)c2)C(=O)N[C@@H](Cc2ccc(C(=O)O)cc2)C(=O)N[C@@H](Cc2ccc(-c3ccccc3)cc2)C(=O)N[C@@H](Cc2ccc(C(=O)O)cc2)C(=O)N[C@@H](CCCN)C(=O)N[C@H](CC(C)C)C(=O)N[C@@H](CCN)C(=O)N[C@@H](CC2CCCCC2)C(=O)N[C@@H](C(C)C)C(=O)N[C@@H](CCC(=O)O)C(=O)N1)C(=O)O [Compound 1822] ({CH2CO}-[Nva]Y(Carboxymethyl)D[Phe(3-Me)][Phe(4-COOH)][Bip][Phe(4-COOH)][Orn][dL][Dab][Cha]VEC[Dab][Pra]-OH; thioether N-14)	5.8 nM
C#CC[C@H](NC(=O)[C@H](CCN)NC(=O)[C@@H]1CSCC(=O)N[C@@H](CCN)C(=O)N[C@@H](Cc2ccc(OCC(=O)O)cc2)C(=O)N[C@@H](CC(=O)O)C(=O)N[C@@H](Cc2cccc(C)c2)C(=O)N[C@@H](Cc2ccc(C(=O)O)cc2)C(=O)N[C@@H](Cc2ccc(-c3ccccc3)cc2)C(=O)N[C@@H](Cc2ccc(C(=O)O)cc2)C(=O)N[C@@H](CCCN)C(=O)N[C@H](CC(C)C)C(=O)N[C@@H](CCN)C(=O)N[C@@H](CC2CCCCC2)C(=O)N[C@@H](C(C)C)C(=O)N[C@@H](CCC(=O)O)C(=O)N1)C(=O)O [Compound 1823] ({CH2CO}-[Dab]Y(Carboxymethyl)D[Phe(3-Me)][Phe(4-COOH)][Bip][Phe(4-COOH)][Orn][dL][Dab][Cha]VEC[Dab][Pra]-OH; thioether N-14)	10.1 nM
C#CC[C@H](NC(=O)[C@H](CCN)NC(=O)[C@@H]1CSCC(=O)N[C@@H]([C@@H](C)O)C(=O)N[C@@H](Cc2ccc(OCC(=O)O)cc2)C(=O)N[C@@H](CC(=O)O)C(=O)N[C@@H](Cc2cccc(C)c2)C(=O)N[C@@H](Cc2ccc(C(=O)O)cc2)C(=O)N[C@@H](Cc2ccc(-c3ccccc3)cc2)C(=O)N[C@@H](Cc2ccc(C(=O)O)cc2)C(=O)N[C@@H](CCCN)C(=O)N[C@H](CC(C)C)C(=O)N[C@@H](CCN)C(=O)N[C@@H](CC2CCCCC2)C(=O)N[C@@H](C(C)C)C(=O)N[C@@H](CCC(=O)O)C(=O)N1)C(=O)O [Compound 1824] ({CH2CO}-TY(Carboxymethyl)D[Phe(3-Me)][Phe(4-COOH)][Bip][Phe(4-COOH)][Orn][dL][Dab][Cha]VEC[Dab][Pra]-OH; thioether N-14)	9.3 nM
C#CC[C@H](NC(=O)[C@H](CCN)NC(=O)[C@@H]1CSCC(=O)N[C@@H](CN)C(=O)N[C@@H](Cc2ccc(OCC(=O)O)cc2)C(=O)N[C@@H](CC(=O)O)C(=O)N[C@@H](Cc2cccc(C)c2)C(=O)N[C@@H](Cc2ccc(C(=O)O)cc2)C(=O)N[C@@H](Cc2ccc(-c3ccccc3)cc2)C(=O)N[C@@H](Cc2ccc(C(=O)O)cc2)C(=O)N[C@@H](CCCN)C(=O)N[C@H](CC(C)C)C(=O)N[C@@H](CCN)C(=O)N[C@@H](CC2CCCCC2)C(=O)N[C@@H](C(C)C)C(=O)N[C@@H](CCC(=O)O)C(=O)N1)C(=O)O [Compound 1825] ({CH2CO}-[Dap]Y(Carboxymethyl)D[Phe(3-Me)][Phe(4-COOH)][Bip][Phe(4-COOH)][Orn][dL][Dab][Cha]VEC[Dab][Pra]-OH; thioether N-14)	182 nM
C#CC[C@H](NC(=O)[C@H](CCN)NC(=O)[C@@H]1CSCC(=O)N[C@@H](CCC)C(=O)N[C@@H](Cc2ccc(OCC(=O)O)cc2)C(=O)N[C@@H](CC(=O)O)C(=O)N[C@@H](Cc2cccc(C)c2)C(=O)N[C@@H](Cc2ccc(OCC(=O)O)cc2)C(=O)N[C@@H](Cc2ccc(-c3ccccc3)cc2)C(=O)N[C@@H](Cc2ccc(OCC(=O)O)cc2)C(=O)N[C@@H](CCCN)C(=O)N[C@H](CC(C)C)C(=O)N[C@@H](CCN)C(=O)N[C@@H](CC2CCCCC2)C(=O)N[C@@H](C(C)C)C(=O)N[C@@H](CCC(=O)O)C(=O)N1)C(=O)O [Compound 1826] ({CH2CO}-[Nva]Y(Carboxymethyl)D[Phe(3-Me)]Y(Carboxymethyl)[Bip]Y(Carboxymethyl)[Orn][dL][Dab][Cha]VEC[Dab][Pra]-OH; thioether N-14)	4 nM
C#CC[C@H](NC(=O)[C@H](CCN)NC(=O)[C@@H]1CSCC(=O)N[C@@H](CN2CCOCC2)C(=O)N[C@@H](Cc2ccc(OCC(=O)O)cc2)C(=O)N[C@@H](CC(=O)O)C(=O)N[C@@H](Cc2cccc(C)c2)C(=O)N[C@@H](Cc2ccc(OCC(=O)O)cc2)C(=O)N[C@@H](Cc2ccc(-c3ccccc3)cc2)C(=O)N[C@@H](Cc2ccc(OCC(=O)O)cc2)C(=O)N[C@@H](CCCN)C(=O)N[C@H](CC(C)C)C(=O)N[C@@H](CCN)C(=O)N[C@@H](CC2CCCCC2)C(=O)N[C@@H](C(C)C)C(=O)N[C@@H](CCC(=O)O)C(=O)N1)C(=O)O [Compound 1827] ({CH2CO}-[Ala(morpholin-4-yl)]Y(Carboxymethyl)D[Phe(3-Me)]Y(Carboxymethyl)[Bip]Y(Carboxymethyl)[Orn][dL][Dab][Cha]VEC[Dab][Pra]-OH; thioether N-14)	9.4 nM
